Measurements taken from US20240108637A1, “EPITE[…] AND/OR A STEROID SULFATASE INHIBITOR FOR USE IN TREATING OR IMPROVING AGE RELATED COGNITIVE IMPAIRMENT” (U[…] DE OLAVIDE, priority 2020, published 2024).
“Also recorded” adds a separate entry of the source.

Experiments:
[1] = test system: C. elegans; assay: Lifespan assays in C. elegans; format: in vivo, Caenorhabditis elegans
Protocol: F2 L4 animals were shifted to 25° C. (t=0). ES treatment started at L4 stage, control and treated plates were prepared fresh and animals transferred each three days until death. Animals lost or dead by non-physiological causes were censured. Survival curves were generated using the product-limit method of Kaplan and Meier. The log-rank (Mantel-Cox) test was used to evaluate differences in survival and […] lower than 0.05 were considered significant.

[2] = test system: NL5901 strain expressing α-synuclein in muscle cells; assay: Parkinson's disease model: mobility of NL5901 strain; format: in vivo, C. elegans; settings: 1 μg/ml
Description: We have studied the anatomical location of sul-2 expression from an extrachromosomal array and in single-copy insertion transgenic strains. […] There is no detectable expression in the germline in any transgenic strains (FIG. 2n and FIG. 10, 11a-b). ASE neurons are responsible for the attractive response of Na+ and Cl−, among others. Defects in odour sensing affect longevity. Therefore, we tested the ability of sul-2 mutants to respond to Cl− or Na+ and found no differences compared to wild type animals (FIG. 11c-d). Furthermore, sul-2 mutation increases the longevity of daf-10(m79), a long-lived mutant defective in sensory cilia formation25 (FIG. 11e). […] Reduction of sul-2 improves aging associated diseases in C. elegans Aging is considered the main risk factor for the onset of neurodegenerative disorders like Parkinson, Huntington, or Alzheimer's diseases. These disorders are caused by the progressive decline of proteostasis, which results in protein aggregation that compromises cellular functions and finally causes cell death. Germline-deficient C. elegans delay the symptoms derived from the proteotoxicity of ectopically expressed human β-amyloid (βA). We tested if sul-2 mutations or STX64 treatment improves the symptoms of C. elegans models for neurodegenerative diseases.

[3] = test system: polyglutamine repeats fused to YFP (Q40 background, strain AM141); assay: Huntington neurodegenerative model: number of polyglutamine aggregates; format: in vivo, C. elegans; settings: 1 μg/ml, 5-day old worms
[4] = test system: GMC101 strain expressing human β-amyloid in muscle; assay: Alzheimer's disease model: thermodependent paralysis of GMC101 strain; format: in vivo, C. elegans; settings: 1 μg/ml, FIG. 3h, FIG. 4b
Description: (§1) In this model, GFP-labelled dopaminergic neurons die due to α-synuclein toxicity. […] We also tested two different strains of Alzheimer's disease (AD) in worms, where immobility is caused by expression of βA protein in muscle cells.

[5] = test system: CL2006 strain expressing human β-amyloid in muscle; assay: Alzheimer's disease model: paralysis with age of CL2006 strain; format: in vivo, C. elegans; settings: Log-rank (Mantel-Cox) test p=0.007, FIG. 12g
Description: as §1

[6] = test system: daf-2(e1370); assay: Developmental arrest (dauer / L1) at 25° C.; format: in vivo, C. elegans; settings: daf-2(e1370) background
Protocol: Worms were growth at 16° C. until L4, then shifted to 25° C. considering this Day 0 of adulthood. The pumping was counted under the Leica stereoscope at 100× magnification for 30 seconds. Data display from two independent biological assays (n=30 per day). Two-tailed Mann-Whitney t-test, ***p=0.0006. e Thrashing in sul-2(gk187) is similar to wild type but is slightly lower in sul-2 (pv17) at 25° C. on day 1 of adulthood. On day 6 at 25° of adulthood, the trashing on sul-2(gk187) is lower than wild type and sul-(pv17), with no differences among these last strains. The population of sul-2(gk17) at day 6 seems to distribute into two different populations, one with almost no thrashing and other with values similar to wild type a sul-2(pv17). […] In this condition, all animals from daf-2(e1370); sul-2(pv17) double mutants arrest at L1 stage. Similarly, more than 50% of animals arrest in L1 stage in daf-2(m577); sul-2(pv17) background, while none of the single mutants show this phenotype. i Example of sul-2(pv17) larvae, dauer larval arrest of daf-2(e1370) or L1 arrest of daf-2(e1370); sul-2 (pv17) and daf-2(e1370); sul-2(gk187) at 25° C. Animals were grown up to L4 at 16° C., then shifted at 25° C., progeny were scored or imaged after 72 hours. Photographs were taken in a Leica scope.

[7] = test system: wild type mice injected with β-amyloid oligomers in the hippocampus; assay: Passive avoidance test after intrahippocampal βA oligomers infusion (acute AD model); format: in vivo
Description: (§2) As STX64 ameliorated neurodegeneration in C. elegans models, we tested the effect of this drug on cognitive alterations provoked by intrahippocampal βA oligomers infusion, an acute AD mammalian model (FIG. 3i). […] To evaluate the effect of STX64 oral treatment on amyloid pathology in a chronic AD mice model, we assessed the effect of 3-4 weeks of STX64 oral treatment on amyloid deposition in the neocortex (the cerebral cortex and the hippocampus) of >15-month-old APP-PS1 mice (FIG. 4k). […] We wondered if this histological improvement correlated with amelioration of cognitive behavioural deficit. For that, we compared cognition capacities in APP-PS1 mice older than 15-month-old treated with vehicle or STX64 for 3-4 weeks.
(§3) The first, object recognition, after training with identical objects, tests the ability to identify different objects exposed together with a familiar one. When this happens, the object discrimination index is positive and higher than 0.1. […] For this purpose, during training, the entry latency to the preferred site is established and the aversive stimulus is administered.

[8] = test system: APP-PS1 mice; assay: β-amyloid deposition in frontal cortex and hippocampus (chronic AD model); format: in vivo; settings: 3-4 weeks oral
Description: as §2

[9] = test system: aged mice; assay: Object recognition test in aged mice; format: in vivo
Protocol: as §3

[10] = test system: 16-month-old mice; assay: Open Field test; format: in vivo; settings: FIG. 20; for habituation ability: aged animals, Open Field 15 minutes
Protocol: (§4) The “Open Field” is a test where the mouse must explore an unknown space for 15 minutes. In this test, both mobility and habituation (cognitive parameter that measures the individual's ability to recognize the environment) can be studied. On the other hand, the “Y maze” test is a test where the mouse explores the maze for 6 minutes. This test evaluates the distance traveled as a measure of mobility and the ability to visit triplets of arms without repeating any of them as a sign of immediate memory.

[11] = test system: 16-month-old mice; assay: Y maze test; format: in vivo; settings: aged animals, Y maze 6 minutes, FIG. 20
Protocol: as §4

For `NS(=O)(=O)Oc1ccc2c3c(c(=O)oc2c1)CCCCC3` [STX64], the “dependence of the increase of longevity on daf-36” value ([1]; daf-36 mutant, 1 μg/ml, FIG. 2m) was “daf-36 is necessary for the increase of longevity; also recorded: DAF-36 is required for the longevity”, the lifespan ([1]; sul-2 (gk187) deletion background, 1 μg/ml, UV-killed E. coli, FIG. 1D) was “does not further increase the longevity” and the lifespan ([1]; wild type animals, 1 μg/ml, UV-killed E. coli, FIG. 1D) was “increases lifespan”. For the same compound, the longevity ([1]; wild type animals, text statement (FIG. 1d, FIG. 7a-c)) was “increase in longevity; also recorded: extends lifespan”, the lifespan ([1]; wild type, non-UV E. coli, FIG. 7a) was “increases lifespan of wild type” and the mobility with age [2] was “reduce mobility with age at a slower rate; also recorded: significantly improved mobility; also recorded: protective effect”. The “number of polyglutamine aggregates” value [3] was “aggregates are reduced; also recorded: reduced the number of aggregates”, the paralysis phenotype [4] was “the paralysis phenotype is ameliorated; also recorded: delayed paralysis” and the paralysis with age [5] was “delayed paralysis; also recorded: ameliorated”. For the same compound, the L1 arrest [6] was “phenocopies other sul-2 mutant phenotypes; also recorded: mainly arrests in L1”, the L1 arrest ([6]; listed as STX 64) was “increase of L1 arrest” and the “cognitive deficiencies, passive avoidance test” value ([7]; local (intrahippocampal) administration) was “reverted the cognitive deficiencies”. For the same compound, the “cognitive deficiencies, passive avoidance test” value ([7]; systemic (oral) administration) was “reverted the cognitive deficiencies”, the “βA deposition compared with un-treated APP-PS1 mice of 10-12 months of age” value ([8]; APP-PS1 mice older than 15 months) was “reduces βA deposition” and the βA immunoreactive area ([8]; frontal cortex and hippocampus, >15-month-old APP-PS1 mice) was “reduced in both tissues”. For the same compound, the βA plaque density ([8]; frontal cortex and hippocampus, >15-month-old APP-PS1 mice, 0.005 mg/ml in drink water) was “significant reduction”, the βA plaque size ([8]; frontal cortex, >15-month-old APP-PS1 mice, 0.005 mg/ml in drink water) was “significant reduction” and the object recognition ([9]; 3-month treatment in 18 months old mice, FIG. 19B) was “is improved”. The object recognition ([9]; 3 months treatment in 15 months old mice, FIG. 16B) was “is improved”, the object recognition ([9]; 6 months treatment in 15 months old mice, FIG. 17B) was “is improved” and the “learning and memory, object recognition test” value ([9]; aged mice, vs vehicle-treated, FIG. 21, listed as STX) was “showed significantly both learning (STM) and ability to store information (memory); also recorded: significant improvement in both learning (STM) and ability to store information (memory)”. For the same compound, the “motor ability (mobility)” value ([10]; 16-month-old mice, Open Field mobility and Y maze distance traveled) was “tend to improve”, the habituation ability [10] was “tend to improve” and the habituation ability ([10]; listed as STX) was “are improved”. The immediate memory [11] was “tend to improve” and the immediate memory ([11]; listed as STX) was “are improved”.
